For the experiment, the target named is T1, human β3 adrenergic receptor (Homo sapiens, UniProt P13945).
T1 construct: expressed in transfected cells; host or cells: DXB-11 Chinese hamster ovary (CHO) cell line, stably transfected (phd expression vector)
Description: whole cell receptor coupled c-AMP assay, human β3 receptor in CHO cells (EC50, Emax relative to isoproterenol). The settings on record: Emax ± standard error of the mean; average of at least 3 runs except where n = 1; compound tested in the isolated form listed. The class given is cell-based. In a few lines: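 Stably transfected DXB-11 CHO cells (20,000/well) were exposed to compound for 20 min at 37 °C in HBSS/HEPES buffer with 1 mM IBMX, pH 7.4. cAMP was measured by SPA. EC50 came from a four-parameter logistic fit, and Emax is the maximal response as a percentage of isoproterenol's.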

T1 sequence (P13945 whole entry): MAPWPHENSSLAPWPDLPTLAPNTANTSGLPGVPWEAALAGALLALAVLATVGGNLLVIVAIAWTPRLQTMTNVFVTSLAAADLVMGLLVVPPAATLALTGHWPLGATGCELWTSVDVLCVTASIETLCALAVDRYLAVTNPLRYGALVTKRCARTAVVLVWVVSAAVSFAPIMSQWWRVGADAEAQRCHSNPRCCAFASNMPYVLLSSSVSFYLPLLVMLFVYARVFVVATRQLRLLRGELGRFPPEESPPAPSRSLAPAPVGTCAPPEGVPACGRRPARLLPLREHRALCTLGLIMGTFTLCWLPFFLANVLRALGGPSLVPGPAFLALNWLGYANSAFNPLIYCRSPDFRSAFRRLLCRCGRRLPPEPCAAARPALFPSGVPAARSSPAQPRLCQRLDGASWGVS

As for `CC(C)(Cc1ccc(Oc2cnccn2)cc1)NC[C@H](O)COc1ccccc1-c1ccno1.O=C(O)C(F)(F)F` [Example 155], the “Emax (%) ± SEM” value is listed as 46.6 ± 4.2%.

For the molecule `CC(C)(Cc1ccc(Oc2nc(Cl)c(Cl)cc2Cl)cc1)NC[C@H](O)COc1ccccc1-c1cccs1.O=C(O)C(F)(F)F` [Example 156], the “Emax (%) ± SEM” value came to 84.9 ± 0.2%.

As to `CC(C)(Cc1ccc(Oc2nc(Cl)c(Cl)cc2Cl)cc1)NC[C@H](O)COc1ccccc1-c1nccs1.O=C(O)C(F)(F)F` [Example 157], the “Emax (%) ± SEM” value was found to be 73.3 ± 6.6%.

Regarding `CC(C)(Cc1ccc(Oc2nc(Cl)c(Cl)cc2Cl)cc1)NC[C@H](O)COc1ccccc1-c1ccno1.O=C(O)C(F)(F)F` [Example 158], the “Emax (%) ± SEM” value is recorded as 73.0 ± 3.0%.

For `CC(C)(Cc1ccc(Oc2ncc(C(F)(F)F)cc2Cl)cc1)NC[C@H](O)COc1ccccc1-c1cccs1.O=C(O)C(F)(F)F` [Example 159], the “Emax (%) ± SEM” value is reported as 76.9 ± 7.4%.

With `CC(C)(Cc1ccc(Oc2ncc(C(F)(F)F)cc2Cl)cc1)NC[C@H](O)COc1ccccc1-c1ccno1.O=C(O)C(F)(F)F` [Example 160], the “Emax (%) ± SEM” value is on record as 56.3 ± 1.4%.

Consider `CC(C)(Cc1ccc(Oc2ccc(C#N)cc2Cl)cc1)NC[C@H](O)COc1ccccc1-c1cccs1.O=C(O)C(F)(F)F` [Example 161], for which the “Emax (%) ± SEM” value is listed as 52.5 ± 4.7%.

For the molecule `CC(C)(Cc1ccc(Oc2ccc(C#N)cc2Cl)cc1)NC[C@H](O)COc1ccccc1-c1ccno1.O=C(O)C(F)(F)F` [Example 163], the “Emax (%) ± SEM” value worked out at 44.6 ± 4.3%.

On to `CC(C)(Cc1ccc(Oc2ccc(C(N)=O)cc2Cl)cc1)NC[C@H](O)COc1ccccc1-c1cccs1.O=C(O)C(F)(F)F` [Example 164], for which the “Emax (%) ± SEM” value amounted to 67.3 ± 3.5%.

With `CC(C)(Cc1ccc(Oc2ccc(C(N)=O)cc2Cl)cc1)NC[C@H](O)COc1ccccc1-c1nccs1.O=C(O)C(F)(F)F` [Example 165], the “Emax (%) ± SEM” value is listed as 49.7 ± 3.9%.

Turning to `CC(C)(Cc1ccc(Oc2ccc(C(N)=O)cc2Cl)cc1)NC[C@H](O)COc1ccccc1-c1ccno1.O=C(O)C(F)(F)F` [Example 166], the “Emax (%) ± SEM” value is recorded as 58.3 ± 9.5%.

On to `CC(C)(Cc1ccc(Oc2ccc(Cl)cn2)cc1)NC[C@H](O)COc1ccccc1-c1cccs1.O=C(O)C(F)(F)F` [Example 167], for which the “Emax (%) ± SEM” value was 57.3 ± 3.5%.

Take `CC(C)(Cc1ccc(Oc2ccc(Cl)cn2)cc1)NC[C@H](O)COc1ccccc1-c1nccs1.O=C(O)C(F)(F)F` [Example 168]: the “Emax (%) ± SEM” value is 56.1 ± 4.5%.

On to `CC(C)(Cc1ccc(Oc2ccc(Cl)cn2)cc1)NC[C@H](O)COc1ccccc1-c1ccno1.O=C(O)C(F)(F)F` [Example 169], for which the “Emax (%) ± SEM” value is 43.3 ± 6.8%.

`CC(C)(Cc1ccc(Oc2ccc(C(F)(F)F)cc2Cl)cc1)NC[C@H](O)COc1ccccc1-c1cccs1.O=C(O)C(F)(F)F` [Example 170]: the “Emax (%) ± SEM” value came out at 55.0 ± 4.8%.

As to `CC(C)(Cc1ccc(Oc2ccc(C(F)(F)F)cc2Cl)cc1)NC[C@H](O)COc1ccccc1-c1nccs1.O=C(O)C(F)(F)F` [Example 171], the “Emax (%) ± SEM” value turned out to be 47.9 ± 6.5%.

For `CC(C)(Cc1ccc(Oc2ccc(C(F)(F)F)cc2Cl)cc1)NC[C@H](O)COc1ccccc1-c1ccno1.O=C(O)C(F)(F)F` [Example 172], the “Emax (%) ± SEM” value was 40.4 ± 8.8%.

`CC(C)(Cc1ccc(Oc2ncc(Cl)cc2Cl)cc1)NC[C@H](O)COc1ccccc1-c1cccs1.O=C(O)C(F)(F)F` [Example 173]: the “Emax (%) ± SEM” value came to 87.9 ± 4.5%.

On to `CC(C)(Cc1ccc(Oc2ncc(Cl)cc2Cl)cc1)NC[C@H](O)COc1ccccc1-c1ccno1.O=C(O)C(F)(F)F` [Example 174], for which the “Emax (%) ± SEM” value is on record as 59.3 ± 3.2%.

Take `CC(C)(Cc1ccc(Oc2cccc(Cl)n2)cc1)NC[C@H](O)COc1ccccc1-c1cccs1.O=C(O)C(F)(F)F` [Example 175]: the “Emax (%) ± SEM” value is given as 67.4 ± 3.9%.

Regarding `CC(C)(Cc1ccc(Oc2cccc(Cl)n2)cc1)NC[C@H](O)COc1ccccc1-c1nccs1.O=C(O)C(F)(F)F` [Example 176], the “Emax (%) ± SEM” value stood at 57.0 ± 7.6%.

On to `CC(C)(Cc1ccc(Oc2cccc(Cl)n2)cc1)NC[C@H](O)COc1ccccc1-c1ccno1.O=C(O)C(F)(F)F` [Example 177], for which the “Emax (%) ± SEM” value was 46.0 ± 1.7%.

As to `CC(C)(Cc1ccc(Oc2ncccc2Cl)cc1)NC[C@H](O)COc1ccccc1-c1cccs1.O=C(O)C(F)(F)F` [Example 178], the “Emax (%) ± SEM” value turned out to be 64.4 ± 5.2%.

Turning to `CC(C)(Cc1ccc(Oc2ncccc2Cl)cc1)NC[C@H](O)COc1ccccc1-c1nccs1.O=C(O)C(F)(F)F` [Example 179], the “Emax (%) ± SEM” value worked out at 62.2 ± 8.6%.

With `CC(C)(Cc1ccc(Oc2ncccc2Cl)cc1)NC[C@H](O)COc1ccccc1-c1ccno1.O=C(O)C(F)(F)F` [Example 180], the “Emax (%) ± SEM” value was 52.4 ± 6.9%.

Turning to `CC(C)(Cc1ccc(Oc2ccc(S(C)(=O)=O)cc2Cl)cc1)NC[C@H](O)COc1ccccc1-c1cccs1.O=C(O)C(F)(F)F` [Example 181], the “Emax (%) ± SEM” value came to 66.2 ± 1.6%.

With `CC(C)(Cc1ccc(Oc2ccc(S(C)(=O)=O)cc2Cl)cc1)NC[C@H](O)COc1ccccc1-c1nccs1.O=C(O)C(F)(F)F` [Example 182], the “Emax (%) ± SEM” value stood at 57.6 ± 7.1%.

Turning to `CC(C)(Cc1ccc(Oc2ccc(S(C)(=O)=O)cc2Cl)cc1)NC[C@H](O)COc1ccccc1-c1ccno1.O=C(O)C(F)(F)F` [Example 183], the “Emax (%) ± SEM” value came to 53.7 ± 4.3%.

For the molecule `CCOC(=O)c1ccc(Oc2ccc(CC(C)(C)NC[C@H](O)COc3ccccc3-c3cccs3)cc2)c(F)c1.O=C(O)C(F)(F)F` [Example 184], the “Emax (%) ± SEM” value came out at 64.1 ± 3.2%.

Regarding `CCOC(=O)c1ccc(Oc2ccc(CC(C)(C)NC[C@H](O)COc3ccccc3-c3nccs3)cc2)c(F)c1.O=C(O)C(F)(F)F` [Example 185], the “Emax (%) ± SEM” value is listed as 45.1 ± 2.6%.

With `CCOC(=O)c1ccc(Oc2ccc(CC(C)(C)NC[C@H](O)COc3ccccc3-c3ccno3)cc2)c(F)c1.O=C(O)C(F)(F)F` [Example 186], the “Emax (%) ± SEM” value worked out at 41.1 ± 8.2%.

As for `CC(C)(Cc1ccc(Oc2ccc(C#N)cc2F)cc1)NC[C@H](O)COc1ccccc1-c1cccs1.O=C(O)C(F)(F)F` [Example 187], the “Emax (%) ± SEM” value is 45.1 ± 1.5%.

Turning to `CC(C)(Cc1ccc(Oc2ccc(C#N)cc2F)cc1)NC[C@H](O)COc1ccccc1-c1nccs1.O=C(O)C(F)(F)F` [Example 188], the “Emax (%) ± SEM” value was determined as 38.3 ± 5.7%.

In the case of `CC(C)(Cc1ccc(Oc2ccc(C#N)cc2F)cc1)NC[C@H](O)COc1ccccc1-c1ccno1.O=C(O)C(F)(F)F` [Example 189], the “Emax (%) ± SEM” value is on record as 35.1 ± 5.2%.

For the molecule `CC(C)(Cc1ccc(Oc2ccc(C(N)=O)cc2F)cc1)NC[C@H](O)COc1ccccc1-c1cccs1.O=C(O)C(F)(F)F` [Example 190], the “Emax (%) ± SEM” value is 54.5 ± 3.3%.

Take `CC(C)(Cc1ccc(Oc2ccc(C(N)=O)cc2F)cc1)NC[C@H](O)COc1ccccc1-c1nccs1.O=C(O)C(F)(F)F` [Example 191]: the “Emax (%) ± SEM” value was found to be 49.5 ± 1.5%.

For `CC(C)(Cc1ccc(Oc2ccc(C(N)=O)cc2F)cc1)NC[C@H](O)COc1ccccc1-c1ccno1.O=C(O)C(F)(F)F` [Example 192], the “Emax (%) ± SEM” value is on record as 40.3 ± 6.9%.

With `CC(C)(Cc1ccc(Oc2ccc(C(F)(F)F)cn2)cc1)NC[C@H](O)COc1ccccc1-c1cccs1.O=C(O)C(F)(F)F` [Example 193], the “Emax (%) ± SEM” value is 73.5 ± 3.2%.

As to `CC(C)(Cc1ccc(Oc2ccc(C(F)(F)F)cn2)cc1)NC[C@H](O)COc1ccccc1-c1nccs1.O=C(O)C(F)(F)F` [Example 194], the “Emax (%) ± SEM” value was found to be 56.6 ± 4.2%.

As to `CC(C)(Cc1ccc(Oc2ccc(C(F)(F)F)cn2)cc1)NC[C@H](O)COc1ccccc1-c1ccno1.O=C(O)C(F)(F)F` [Example 195], the “Emax (%) ± SEM” value worked out at 48.1 ± 3.8%.

As to `CC(C)(Cc1ccc(Oc2cccnc2C(N)=O)cc1)NC[C@H](O)COc1ccccc1-c1cccs1.O=C(O)C(F)(F)F` [Example 196], the “Emax (%) ± SEM” value was determined as 74.4 ± 3.3%.

For the molecule `CC(C)(Cc1ccc(Oc2cccnc2C(N)=O)cc1)NC[C@H](O)COc1ccccc1-c1nccs1.O=C(O)C(F)(F)F` [Example 197], the “Emax (%) ± SEM” value was 67.7 ± 2.7%.

`CC(C)(Cc1ccc(Oc2cccnc2C(N)=O)cc1)NC[C@H](O)COc1ccccc1-c1ccno1.O=C(O)C(F)(F)F` [Example 198]: the “Emax (%) ± SEM” value amounted to 48.1 ± 6.5%.

Consider `CC(C)(Cc1ccc(Oc2cccnc2C(N)=O)cc1)NC[C@H](O)COc1ccccc1-c1ccns1.O=C(O)C(F)(F)F` [Example 199], for which the “Emax (%) ± SEM” value was 83.0 ± 4.0%.

Take `CC(C)(Cc1ccc(Oc2ccncc2)cc1)NC[C@H](O)COc1ccccc1-c1cccs1.O=C(O)C(F)(F)F` [Example 202]: the “Emax (%) ± SEM” value worked out at 59.1 ± 6.0%.

Take `CC(C)(Cc1ccc(Oc2ccncc2)cc1)NC[C@H](O)COc1ccccc1-c1nccs1.O=C(O)C(F)(F)F` [Example 203]: the “Emax (%) ± SEM” value is given as 57.8 ± 3.1%.

Regarding `CCOC(=O)c1ccc(Oc2ccc(CC(C)(C)NC[C@H](O)COc3ccccc3-c3cccs3)cc2)c(Cl)c1.O=C(O)C(F)(F)F` [Example 204], the “Emax (%) ± SEM” value amounted to 67.6 ± 4.0%.

Regarding `CC(C)(Cc1ccc(Oc2ccc(C(N)=O)nc2)cc1)NC[C@H](O)COc1ccccc1-c1cccs1.O=C(O)C(F)(F)F` [Example 205], the “Emax (%) ± SEM” value was 70.3 ± 0.3%.

As to `CC(C)(Cc1ccc(Oc2ccc(C(N)=O)nc2)cc1)NC[C@H](O)COc1ccccc1-c1nccs1.O=C(O)C(F)(F)F` [Example 206], the “Emax (%) ± SEM” value is recorded as 64.2 ± 8.1%.

Regarding `CC(C)(Cc1ccc(Oc2ccc(C(N)=O)nc2)cc1)NC[C@H](O)COc1ccccc1-c1ccns1.O=C(O)C(F)(F)F` [Example 207], the “Emax (%) ± SEM” value turned out to be 70.5 ± 4.9%.

Turning to `CC(C)(Cc1ccc(Oc2ccc(Cl)nn2)cc1)NC[C@H](O)COc1ccccc1-c1cccs1.O=C(O)C(F)(F)F` [Example 208], the “Emax (%) ± SEM” value is on record as 92.4 ± 7.3%.

Take `CC(C)(Cc1ccc(Oc2ccc(Cl)nn2)cc1)NC[C@H](O)COc1ccccc1-c1nccs1.O=C(O)C(F)(F)F` [Example 209]: the “Emax (%) ± SEM” value came to 88.3 ± 8.0%.
